# What was measured:
# [1] = test system: Streptococcus pneumoniae ATCC49619; test: MIC by broth microdilution against Streptococcus pneumoniae ATCC49619; settings: ATCC49619, read-out: MIC (ATCC49619)
# [2] = test system: Staphylococcus aureus ATCC29213; test: MIC by broth microdilution against Staphylococcus aureus ATCC29213; settings: ATCC29213, read-out: MIC (ATCC29213)
# [3] = test system: MDR Streptococcus pneumoniae strain (MDR); test: MIC by broth microdilution against MDR Streptococcus pneumoniae; settings: read-out: MIC (MDR)
# [4] = test system: MDR Enterococcus faecium strain (MDR); test: MIC by broth microdilution against MDR Enterococcus faecium; settings: read-out: MIC (MDR)
# [5] = test system: MDR Staphylococcus aureus strain (MDR); test: MIC by broth microdilution against MDR Staphylococcus aureus; settings: read-out: MIC (MDR)
# [6] = test system: Clostridium difficile ATCC700057; test: microbe, parasite or virus in culture; assay type: cell-based; settings: for MIC: Clostridioides difficile, ATCC700057, read-out: MIC (ATCC700057)
# [7] = test system: Clostridium perfringens clinical isolate (CI); test: microbe, parasite or virus in culture; assay type: cell-based; settings: read-out: MIC (CI)
# [8] = test system: Enterococcus faecium; test: MIC by broth microdilution against Enterococcus faecium
# [9] = test system: Clostridium perfringens ATCC13124; test: microbe, parasite or virus in culture; assay type: cell-based; settings: ATCC13124, read-out: MIC (ATCC13124)
# [10] = test system: Bacillus subtilis; assay type: cell-based
Structure (SMILES),MIC [1] [µg/mL],MIC [2] [µg/mL],MIC [3] [µg/mL],MIC [4] [µg/mL],MIC [5] [µg/mL],MIC [6] [µg/mL],MIC [7] [µg/mL],MIC [8] [µg/mL],MIC [9] [µg/mL],antibacterial activity against Bacillus subtilis [10],selectivity for Clostridium difficile [6]
"Nc1ccc(-c2nc3cc(-c4ccc5nc(-c6ccc(N)cc6)[nH]c5c4)ccc3[nH]2)cc1 [Compound 1, 4,4′-(1H,3′H-5,5′-bibenzo[d]imidazole-2,2′-diyl)dianiline]",< 1,< 1,< 1,< 1,< 1,< 1,< 1,< 1,< 1,–,–
"Nc1cccc(-c2nc3cc(-c4ccc5[nH]c(-c6cccc(N)c6)nc5c4)ccc3[nH]2)c1 [Compound 2, 3,3′-(1H,1′H-5,5′-bibenzo[d]imidazole-2,2′-diyl)dianiline]",1 to 16,1 to 16,1 to 16,1 to 16,> 64,1 to 16,> 64,1 to 16,> 64,–,–
"Oc1ccc(-c2nc3cc(-c4ccc5[nH]c(-c6ccc(O)cc6)nc5c4)ccc3[nH]2)cc1 [Compound 3, 4,4′-(1H,1′H-5,5′-bibenzo[d]imidazole-2,2′-diyl)diphenol]",< 1,< 1,< 1,< 1,< 1,< 1,1 to 16,< 1,1 to 16,–,–
"Cn1c(-c2ccc(N)cc2)nc2ccc(-c3ccc4[nH]c(-c5ccc(N)cc5)nc4c3)cc21 [Compound 4, 4,4′-(3′-methyl-1H,3′H-5,5′-bibenzo[d]imidazole-2,2′-diyl)dianiline]",< 1,> 64,1 to 16,< 1,> 64,17 to 64,> 64,1 to 16,> 64,–,–
"Cn1c(-c2ccc(N)cc2)nc2cc(-c3ccc4[nH]c(-c5ccc(N)cc5)nc4c3)ccc21 [Compound 5, 4,4′-(1-methyl-1H,1′H-5,5′-bibenzo[d]imidazole-2,2′-diyl)dianiline]",< 1,1 to 16,< 1,< 1,1 to 16,1 to 16,1 to 16,< 1,1 to 16,–,–
"CNc1ccc(-c2nc3cc(-c4ccc5[nH]c(-c6ccc(NC)cc6)nc5c4)ccc3[nH]2)cc1 [Compound 6, 4,4′-(1H,1′H-5,5′-bibenzo[d]imidazole-2,2′-diyl)bis(N-methylaniline)]",< 1,< 1,< 1,< 1,< 1,1 to 16,1 to 16,< 1,1 to 16,–,–
"COc1ccc(-c2nc3cc(-c4ccc5[nH]c(-c6ccc(OC)cc6)nc5c4)ccc3[nH]2)cc1 [Compound 7, 2,2′-bis(4-methoxyphenyl)-1H,1′H-5,5′-bibenzo[d]imidazole]",< 1,< 1,< 1,< 1,< 1,< 1,< 1,< 1,< 1,–,–
"Nc1ccc(-c2nc3cc(-c4ccc5[nH]cnc5c4)ccc3[nH]2)cc1 [Compound 8, 4-(1H,1′H-5,5′-bibenzo[d]imidazol-2-yl)aniline]",1 to 16,1 to 16,1 to 16,1 to 16,17 to 64,1 to 16,1 to 16,1 to 16,17 to 64,–,–
"Nc1ccc(-c2nc3cc(-c4ccc5[nH]c(-c6ccccc6)nc5c4)ccc3[nH]2)cc1 [Compound 9, 4-(2′-phenyl-1H,1′H-5,5′-bibenzo[d]imidazol-2-yl)aniline]",< 1,1 to 16,< 1,< 1,1 to 16,1 to 16,1 to 16,< 1,17 to 64,–,–
"COc1ccc(-c2nc3ccc(-c4ccc5[nH]c(-c6ccccc6)nc5c4)cc3[nH]2)cc1 [Compound 10, 2′-(4-methoxyphenyl)-2-phenyl-1H,3′H-5,5′-bibenzo[d]imidazole]",< 1,< 1,< 1,< 1,< 1,< 1,< 1,< 1,1 to 16,–,–
"Nc1ccc(-c2nc3cc(-c4ccc5[nH]c(-c6ccc(N)nc6)nc5c4)ccc3[nH]2)cn1 [Compound 11, 5,5′-(1H,1′H-5,5′-bibenzo[d]imidazole-2,2′-diyl)dipyridin-2-amine]",< 1,> 64,< 1,1 to 16,> 64,< 1,> 64,1 to 16,17 to 64,–,–
"c1cc(-c2nc3cc(-c4ccc5[nH]c(-c6ccncc6)nc5c4)ccc3[nH]2)ccn1 [Compound 12, 2,2′-di(pyridin-4-yl)-1H,1′H-5,5′-bibenzo[d]imidazole]",< 1,> 64,< 1,> 64,> 64,< 1,> 64,> 64,> 64,no significant antibacterial activity,highly selective for Clostridium difficile
